Values of other authors in patent US6790849B2, “Methods and compositions using optically pure (-) cetirizine in combination with leukotriene inhibitors or decongestants” (Sepracor Inc., priority 1998, dated 2004).
Read-outs that look alike come from different tables or passages of the source.

Legend:
[1] = system: allergen- or exercise-induced bronchoconstriction; details: patients, doses as large as 20 mg
[2] = system: LTD4; details: guinea pigs
[3] = system: LTB4 formation; details: several species
[4] = for efficacy: 373 patients
[5] = system: leukotriene (LTH4, LTC4, LTD4, and LTE4) formation
[6] = system: leukotriene-dependent smooth muscle contractions; details: in vitro, guinea pig and human airways
[7] = system: LTD4; details: in vivo
[8] = system: LTD4; details: in vivo; remark: listed apart in the source
[9] = system: three leukotrienes in conducting airway smooth muscle; details: in vitro, laboratory animals and humans

Compound: O=C(O)COCCN1CCN(C(c2ccccc2)c2ccc(Cl)cc2)CC1 (racemic) [cetirizine]
- preventing allergen- or exercise-induced bronchoconstriction [1]: not uniformly effective

Compound: CC(C)(C)c1ccc(C(O)CCCN2CCC(C(O)(c3ccccc3)c3ccccc3)CC2)cc1 (stereo not drawn) [terfenadine]
- increase in airway resistance caused by LTD4 [2]: suppressed

Compound: CC(c1cc2ccccc2s1)N(O)C(N)=O (racemic) [zileuton, (±)-1-(1-Benso[b]thien-2-ylethyl)-1-hydroxyurea]
- LTB4 formation ex vivo [3]: inhibitor
- efficacy ([4]; 400 mg): failed to do so
- efficacy ([4]; 600 mg four times daily): required to provide efficacy
- adverse effects reported in some patients ([4]; some patients): headache, pain, asthenia, dyspepsia, nausea, and myalgia
- leukotriene (LTH4, LTC4, LTD4, and LTE4) formation in vitro [5]: inhibit
- leukotriene-dependent smooth muscle contractions [6]: inhibits

Compound: COc1cc(C(=O)NS(=O)(=O)c2ccccc2C)ccc1Cc1cn(C)c2ccc(NC(=O)OC3CCCC3)cc12 [zafirlukast, 4-(5-cyclopentyloxy-carbonylamino-1-methyl-indol-8-ylmethyl)-3-methoxy-N-o-tolylsulfonylbenzamide]
- intradermal LTD4-induced increases in cutaneous vascular permeability [7]: prevented
- adverse effects reported in some patients: headache, infection, nausea, diarrhea, pain, asthenia, abdominal pain, dizziness, myalgia, fever, vomiting, SGPT elevation, and dyspepsia
- inhaled LTD4-induced influx of eosinophils into animal lungs [8]: inhibited
- contractile activity of three leukotrienes in conducting airway smooth muscle [9]: antagonized
